In article PMC10672269, “Evaluation of Carbonic Anhydrase, Acetylcholinesterase, Butyrylcholinesterase, and α-Glycosidase Inhibition Effects and Antioxidant Activity of Baicalin Hydrate” (Life, 2023):
Values joined by “and” are separate entries in the source; they are usually repeats but may differ in a detail not shown here. Equal entries are not always repeated. Where two headings read alike, the source gives them in different places.

Legend:
DMPD radical scavenging = assay: DMPD radical scavenging
Method: Baicalin hydrate was evaluated for its capacity to remove DMPD^•+ using the Fogliano technique. For this purpose, 0.5 mL of FeCl3 (50 mM) and 1.5 mL of DMPD solution were added to the buffer solution (pH 5.3, 0.1 M). Then, this mixture was added to 1 mL of different concentrations (10–30 μg/mL) of baicalin hydrate. Then, the total volume was adjusted to 4 mL using deionized water. Finally, 1 mL of DMPD radicals were added, and their absorbances were recorded at 505 nm.
(§1) The IC50 values were determined using plots of activity (%) versus baicalin hydrate. Ki values and other inhibition factors were determined using Lineweaver–Burk graphs.

[1] = Fe3+ reducing ability (potassium ferricyanide reduction); details: at 30 μg/mL
Method: According to prior investigation, baicalin hydrate’s ability to reduce Fe^3+ was achieved. Also, according to previous works, the Fe^3+-reducing effect of baicalin hydrate was tested. Briefly, 0.75 mL of deionized water and different doses of baicalin hydrate (10–30 μg/mL) were combined with 1.25 mL sodium phosphate buffer (pH 6.6, 0.2 M) and 1.25 mL of K3[Fe(CN)6] (1%). After 30 min incubation at 30 °C, the reaction medium was acidified with 1 mL trichloroacetic acid (10%, TCA) and re-incubated in the dark for 30 min. Finally, 0.5 mL of FeCl3 (0.1%) was transferred to the solution. The absorbance values of baicalin hydrate and references were recorded at 700 nm. The increased absorbance of the reaction mixture reflects an increasing reduction ability.

DPPH radical scavenging = assay: DPPH radical scavenging
Method: The Blois technique was used to test the DPPH^• scavenging capacity of baicalin hydrate. Briefly, 0.25 mL of different concentrations of baicalin hydrate in ethanol (10–30 μg/mL) and 0.25 mL of DPPH radical solution (0.3 mM) in ethanol were combined with 1 mL ethanol in test tubes. The mixture was then incubated at 37 °C for 30 min. The DPPH radical scavenging activities of baicalin hydrate were measured at 517 nm.
as §1

[2] = Cu2+ reducing ability (cupric ions reducing); details: at 30 μg/mL
Method: The technique of Apak et al. was utilized to assess the cupric ions (Cu^2+) reducing capacity of baicalin hydrate. After carrying out the required experimental procedures, the absorbances were detected at 450 nm using a spectrophotometer (Shimadzu, UV-1280, Kyoto, Japan). To do so, 0.2 mL CuCl2 solution (10 mM), 200 µL neocuproine solution (7.5 mM), and 200 µL CH3COONa buffer solution (1.0 M) were added to a test tube. The solution was mixed with different concentrations of baicalin hydrate (10–30 μg/mL). The total volume then reduced to 1.5 mL by adding distilled water and stored at room temperature. After 30 min incubation, the absorbances of the samples were measured at 450 nm. The increased absorbance of the reaction reflects increased reduction capacity.

ABTS radical scavenging = assay: ABTS radical scavenging
Method: ABTS^•+ scavenging capacity of baicalin hydrate was measured according to a different work and was detected at 734 nm. ABTS^•+ was produced by the reaction of 2 mM ABTS in water with 2.45 mM potassium persulfate (K2S2O8), incubated in the dark at room temperature for five hours. Before usage, the ABTS^•+ solution was diluted to obtain an absorbance of 0.750 ± 0.025 at 734 nm with phosphate buffer (0.1 M, pH 7.4). Then, 1 mL of ABTS^•+ solution was added to 3 mL of baicalin hydrate in ethanol at different concentrations (10–30 µg/mL).
as §1

[3] = cited from earlier work; for median inhibitory concentration (IC50): DPPH tests in a different investigation; for DPPH radical scavenging IC50: previous reports
hCA II isoenzyme = biological target: T1, hCA II isoenzyme (Homo sapiens, UniProt P00918); assay: Human carbonic anhydrase II inhibition (esterase activity); format: biochemical
T1 construct: hCA II isoenzyme was purified from fresh human erythrocytes; from tissue
Method: hCA II isoenzyme was purified from fresh human erythrocytes. The erythrocytes were spun at 10,000× g for 30 min. The serum was then separated, and the pH was adjusted to 8.7 using solid Tris. Sepharose-4B-L-Tirozyne sulfanilamide affinity column chromatography was used to purify the CA II isoenzyme. […] Sodium acetate/NaClO4 (0.5 M, pH 5.6, 25 °C) was then used to elute the hCA II isozyme. The Bradford technique was used to measure the protein quantity throughout the purification process. Bovine serum albumin was employed as a reference protein. SDS-PAGE was used to monitor the purity of the hCA II isoform. Esterase activity was performed throughout hCA II’s purification and inhibition processes.
as §1

α-glycosidase = assay: α-Glycosidase inhibition (p-NPG substrate); format: biochemical, Saccharomyces cerevisiae
Method: The inhibition effects of baicalin hydrate on α-glycosidase (from Saccharomyces cerevisiae) were assessed according to the procedure outlined by Tao et al.. p-Nitrophenyl-D-glucopyranoside (p-NPG) was used as a substrate for α-glycosidase. Briefly, 75 μL phosphate buffer (pH 7.4) was mixed with 5 μL of the sample and 20 μL α-glycosidase enzyme solution in a phosphate buffer (0.15 U/mL, pH 7.4). After preincubation, 50 μL of p-nitrophenyl-D-glycopyranoside (p-NPG) in a phosphate buffer (5 mM, pH 7.4) was transferred, and the solution was incubated at 37 °C. The absorbance of the samples was measured at 405 nm. The amount of enzyme that catalyzed […] of substrate per minute (pH 7.4) was one α-glycosidase unit.
as §1

[4] = biological target: T2, acetylcholinesterase (AChE) (Electrophorus electricus, UniProt O42275); assay: Acetylcholinesterase inhibition (Ellman); format: biochemical, electric eel (Electrophorus electricus)
T2 construct: AChE was obtained from electric eel (Electrophorus electricus); from tissue
T2 sequence (O42275 24-633): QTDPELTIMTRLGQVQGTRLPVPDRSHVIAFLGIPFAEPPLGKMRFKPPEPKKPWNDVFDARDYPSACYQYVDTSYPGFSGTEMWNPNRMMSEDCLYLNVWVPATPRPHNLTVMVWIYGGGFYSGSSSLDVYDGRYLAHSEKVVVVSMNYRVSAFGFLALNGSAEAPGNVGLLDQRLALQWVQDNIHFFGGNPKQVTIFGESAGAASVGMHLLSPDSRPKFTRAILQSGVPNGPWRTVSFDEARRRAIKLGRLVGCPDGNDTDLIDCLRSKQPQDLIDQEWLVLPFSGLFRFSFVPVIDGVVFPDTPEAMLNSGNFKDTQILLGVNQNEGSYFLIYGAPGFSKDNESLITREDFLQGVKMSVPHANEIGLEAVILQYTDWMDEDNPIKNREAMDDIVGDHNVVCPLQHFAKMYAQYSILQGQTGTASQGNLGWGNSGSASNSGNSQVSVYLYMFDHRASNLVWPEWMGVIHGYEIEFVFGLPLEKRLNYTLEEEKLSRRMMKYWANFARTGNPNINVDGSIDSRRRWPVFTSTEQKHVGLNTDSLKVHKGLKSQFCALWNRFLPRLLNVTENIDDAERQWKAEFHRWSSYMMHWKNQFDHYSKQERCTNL

[5] = biological target: T3, butyrylcholinesterase (BChE) (Equus caballus, UniProt P81908); assay: biochemical; set-up: species or system equine
T3 construct: BChE was purified from equine serum; from tissue; host or cells: equine serum
T3 sequence (P81908 whole entry): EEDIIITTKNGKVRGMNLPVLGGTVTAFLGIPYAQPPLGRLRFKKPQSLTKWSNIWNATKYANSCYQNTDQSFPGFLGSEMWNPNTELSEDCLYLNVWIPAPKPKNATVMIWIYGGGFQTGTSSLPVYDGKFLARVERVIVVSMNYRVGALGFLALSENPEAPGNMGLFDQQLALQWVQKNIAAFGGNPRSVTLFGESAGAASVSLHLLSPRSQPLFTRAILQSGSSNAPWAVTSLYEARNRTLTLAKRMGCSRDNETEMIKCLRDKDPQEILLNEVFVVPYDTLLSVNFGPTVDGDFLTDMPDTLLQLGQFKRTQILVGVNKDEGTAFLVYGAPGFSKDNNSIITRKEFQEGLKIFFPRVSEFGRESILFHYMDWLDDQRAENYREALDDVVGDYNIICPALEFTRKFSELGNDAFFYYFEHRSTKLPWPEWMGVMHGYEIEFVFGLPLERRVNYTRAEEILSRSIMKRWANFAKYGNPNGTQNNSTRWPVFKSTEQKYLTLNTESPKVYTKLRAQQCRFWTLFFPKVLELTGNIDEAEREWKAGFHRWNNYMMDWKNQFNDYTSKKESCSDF

[6] = cited from earlier work
[7] = set-up: method as in PMID 31832335, PMID 16243424, PMID 36297576, doi:10.1016/j.fbio.2022.101557, PMID 37693735; details: other existing studies; cited from earlier work
[8] = set-up: method as in PMID 31832335, PMID 16243424, PMID 24980540, PMID 36297576, doi:10.1016/j.arabjc.2009.12.008; details: at similar concentration; cited from earlier work
AChE = details: cited from earlier work; for Ki: read-out: Ki towards AChE
[9] = set-up: method as in PMID 31832335, PMID 36144638, PMID 37693735, PMID 21554120, PMID 36297576; details: at the same concentration; cited from earlier work

COc1ccc(O)c(C(C)(C)C)c1 [BHA, butylated hydroxyanisole]
DMPD•+ scavenging IC50 (DMPD radical scavenging): 11.99 µg/mL
Fe^3+ reducing, absorbance λ (700 nm) [1]: 2.347 ± 0.046 and 2.347
DPPH• scavenging IC50 (DPPH radical scavenging): 10.10 µg/mL
Cu^2+ reducing, absorbance λ (450 nm) [2]: 2.216 ± 0.059 and 2.216
ABTS•+ scavenging IC50 (ABTS radical scavenging): 5.07 µg/mL

Cc1cc(C(C)(C)C)c(O)c(C(C)(C)C)c1 [BHT, butylated hydroxytoluene]
DMPD•+ scavenging IC50 (DMPD radical scavenging): 8.72 µg/mL
median inhibitory concentration (IC50) [3]: 21.7 µg/mL
Fe^3+ reducing, absorbance λ (700 nm) [1]: 0.952 ± 0.023 and 0.952
DPPH• scavenging IC50 (DPPH radical scavenging): 25.95 µg/mL
Cu^2+ reducing, absorbance λ (450 nm) [2]: 2.044 ± 0.041 and 2.044
ABTS•+ scavenging IC50 (ABTS radical scavenging): 6.99 µg/mL

O=C(O)[C@H]1O[C@@H](Oc2cc3oc(-c4ccccc4)cc(=O)c3c(O)c2O)[C@H](O)[C@@H](O)[C@@H]1O [Baicalin hydrate, baicalin hydrate]
DMPD•+ scavenging IC50 (DMPD radical scavenging): 90.91 µg/mL
IC50 (hCA II isoenzyme): 31.1 nM
Ki (hCA II isoenzyme): 19.3 ± 1.79 nM
median inhibitory concentration (IC50) [3]: 17.0 µg/mL
Fe^3+ reducing, absorbance λ (700 nm) [1]: 1.249
Fe^3+ reducing, absorbance λ (700 nm) ([1]; listed as baicalin hydrate): 1.249 ± 0.014
IC50 (α-glycosidase): 24.6 nM
Ki (α-glycosidase; n: 3, Lineweaver–Burk, read-out: Ki α-Gly): 27 ± 9.91 nM
DPPH• scavenging IC50 (DPPH radical scavenging): 13.40 µg/mL
IC50 [4]: 14.7 nM
Ki [4]: 10 ± 2.86 nM
Selectivity index (Ki for AChE/Ki BChE) [4]: 2.86
Cu^2+ reducing, absorbance λ (450 nm) [2]: 0.344
Cu^2+ reducing, absorbance λ (450 nm) ([2]; listed as baicalin hydrate): 0.344 ± 0.033
ABTS•+ scavenging IC50 (ABTS radical scavenging): 38.37 µg/mL
IC50 [5]: 12.3 nM
Ki ([5]; n: 3, Lineweaver–Burk): 3.5 ± 0.68 nM

O=C(/C=C/c1ccc(O)c(O)c1)OCCc1ccccc1 [CAPE, caffeic acid phenethyl ester]
DPPH radical scavenging IC50 [3]: 3.30 µg/mL
ABTS•+ scavenging IC50 [6]: 9.80 µg/mL
DMPD•+ scavenging IC50 [7]: 26.70 µg/mL
Fe^3+ reducing absorbance [8]: 2.509

Cc1c(C)c2c(c(C)c1O)CCC(C)(C(=O)O)O2 (centres unmarked) [Trolox]
DMPD•+ scavenging IC50 (DMPD radical scavenging): 4.33 µg/mL
Fe^3+ reducing, absorbance λ (700 nm) [1]: 2.119 ± 0.001 and 2.119
DPPH• scavenging IC50 (DPPH radical scavenging): 7.059 µg/mL
Cu^2+ reducing, absorbance λ (450 nm) [2]: 1.548 ± 0.024 and 1.548
ABTS•+ scavenging IC50 (ABTS radical scavenging): 6.16 µg/mL

O=C1O[C@H]([C@@H](O)CO)C(O)=C1O [ascorbic acid, reference compound]
median inhibitory concentration (IC50) [3]: 19.6 µg/mL

O=C(O)[C@H]1O[C@@H](Oc2cc3oc(-c4ccccc4)cc(=O)c3c(O)c2O)[C@H](O)[C@@H](O)[C@@H]1O [baicalin]
IC50 (AChE; a different study, read-out: 50% inhibition of AChE activity (IC50)): 124000 nM
IC50 ([3]; read-out: DPPH radical IC50): 64900 nM

O=C(O)/C=C/c1ccc(O)c(O)c1 [caffeic acid]
Fe^3+ reducing absorbance [8]: 2.769

O=c1oc2cc(O)ccc2c2oc3cc(O)ccc3c12 [coumestrol]
Cu^2+ reduction absorbance [9]: 0.780
Ki (AChE): 21.4 nM
DPPH radical scavenging IC50 [3]: 25.95 µg/mL
ABTS•+ scavenging IC50 [6]: 12.24 µg/mL
DMPD•+ scavenging IC50 [7]: 12.81 µg/mL
Fe^3+ reducing absorbance [8]: 0.739

C=CCc1ccc(O)c(OC)c1 [eugenol]
Cu^2+ reduction absorbance [9]: 0.762
DPPH radical scavenging IC50 [3]: 16.06 µg/mL
ABTS•+ scavenging IC50 [6]: 7.84 µg/mL
DMPD•+ scavenging IC50 [7]: 10.04 µg/mL

COc1ccc2c(c1O)-c1c(O)c(OC)cc3c1[C@H](C2)[N+](C)(C)CC3 [magnofluorine]
Cu^2+ reduction absorbance [9]: 0.468
DPPH radical scavenging IC50 [3]: 10.58 µg/mL
ABTS•+ scavenging IC50 [6]: 27.61 µg/mL
DMPD•+ scavenging IC50 [7]: 15.16 µg/mL
Fe^3+ reducing absorbance [8]: 0.967

CCCCCc1cc(O)cc(O)c1 [olivetol]
Cu^2+ reduction absorbance [9]: 1.314
DPPH radical scavenging IC50 [3]: 17.77 µg/mL
ABTS•+ scavenging IC50 [6]: 1.94 µg/mL
DMPD•+ scavenging IC50 [7]: 19.25 µg/mL

O=c1c(O)c(-c2ccc(O[C@@H]3O[C@H](CO)[C@@H](O)[C@H](O)[C@H]3O)c(O)c2)oc2cc(O)cc(O)c12 [spiraeoside]
Cu^2+ reduction absorbance [9]: 0.519
Ki (AChE): 3.4 nM
DPPH radical scavenging IC50 [3]: 28.51 µg/mL
ABTS•+ scavenging IC50 [6]: 7.48 µg/mL
DMPD•+ scavenging IC50 [7]: 8.15 µg/mL
Fe^3+ reducing absorbance [8]: 1.012

O=C1c2c(O)cc(O)cc2OC(c2ccc(O)c(O)c2)C1O (centres unmarked) [taxifolin]
Cu^2+ reduction absorbance [9]: 0.750
Ki (AChE): 16.7 nM
DPPH radical scavenging IC50 [3]: 77.00 µg/mL
ABTS•+ scavenging IC50 [6]: 0.83 µg/mL
DMPD•+ scavenging IC50 [7]: 173.25 µg/mL

O=c1[nH]c(=O)c2[nH]c(=O)[nH]c2[nH]1 [uric acid]
Fe^3+ reducing absorbance [8]: 0.432

CC(=O)c1c(O)c(C)c(O)c2c1OC1=CC(=O)C(C(C)=O)C(=O)C12C (centres unmarked) [usnic acid]
Cu^2+ reduction absorbance [9]: 0.277
DPPH radical scavenging IC50 [3]: 49.50 µg/mL
ABTS•+ scavenging IC50 [6]: 10.4 µg/mL
DMPD•+ scavenging IC50 [7]: 33.00 µg/mL
Fe^3+ reducing absorbance [8]: 0.278

Cc1c(C)c2c(c(C)c1O)CC[C@@](C)(CCC[C@H](C)CCC[C@H](C)CCCC(C)C)O2 [α-Tocopherol]
DMPD•+ scavenging IC50 (DMPD radical scavenging): 7.11 µg/mL
Fe^3+ reducing, absorbance λ (700 nm) [1]: 0.957 ± 0.018 and 0.957
DPPH• scavenging IC50 (DPPH radical scavenging): 11.31 µg/mL
Cu^2+ reducing, absorbance λ (450 nm) [2]: 0.816 ± 0.041 and 0.816
ABTS•+ scavenging IC50 (ABTS radical scavenging): 8.37 µg/mL

L-Adrenaline [reference compound]
DPPH radical scavenging IC50 [3]: 30.6 µg/mL
ABTS•+ scavenging IC50 [6]: 6.93 µg/mL
DMPD•+ scavenging IC50 [7]: 15.6 µg/mL

tannic acid
Fe^3+ reducing absorbance [8]: 2.428
